pIC50: −log10 of the molar value.
Legend:
Assay type in all cases: functional, cell-based
Hep 3B2 = assay: Cytotoxicity against human Hep3B cells assessed as reduction in cell viability by MTT assay
HL-60 = assay: Cytotoxicity against human HL60 cells assessed as reduction in cell viability by MTT assay
L1210 = assay: Cytotoxicity against mouse L1210 cells assessed as reduction in cell viability by MTT assay
CAPAN-1 = assay: Cytotoxicity against human Capan1 cells assessed as reduction in cell viability by MTT assay
SMMC-7721 = assay: Cytotoxicity against human SMMC7721 cells assessed as reduction in cell viability by MTT assay

Row | SMILES | pIC50 (Hep 3B2) | pIC50 (HL-60) | pIC50 (L1210) | pIC50 (CAPAN-1) | pIC50 (SMMC-7721)
1 | CCn1cc(-c2nc(SCc3nnc(-c4ccc([N+](=O)[O-])cc4)o3)n(CN(C)C)n2)c(=O)c2cc(F)c(N3CCN(C)CC3)cc21 | 4.61 to 5.82 | 4.61 to 5.82 | 4.61 to 5.82 | 4.61 to 5.82 | 4.61 to 5.82
2 | CCn1cc(-c2nc(SCc3nnc(-c4ccccc4)o3)n(CN(C)C)n2)c(=O)c2cc(F)c(N3CCN(C)CC3)cc21 | 4.61 to 5.82 | 4.61 to 5.82 | 4.61 to 5.82 | 4.61 to 5.82 | 4.61 to 5.82
3 | COc1cc(-c2nnc(CSc3nnc(-c4cn(C5CC5)c5cc(N6CCN(C)CC6)c(F)cc5c4=O)o3)o2)cc(OC)c1OC | – | 4.49 to 5.62 | 4.49 to 5.62 | – | 4.49 to 5.62
4 | CCn1cc(-c2nnc(SCc3nnc(-c4ccc(OC)cc4)o3)[nH]2)c(=O)c2cc(F)c(N3CCN(C)CC3)cc21 | 4.45 to 5.42 | 4.45 to 5.42 | 4.45 to 5.42 | 4.45 to 5.42 | 4.45 to 5.42
5 | CC1COc2c(N3CCN(C)CC3)c(F)cc3c(=O)c(-c4nc5scc(-c6ccccc6O)n5n4)cn1c23 (configuration not stated) | 4.25 to 5.44 | 4.25 to 5.44 | 4.25 to 5.44 | 4.25 to 5.44 | 4.25 to 5.44
6 | CCn1cc(-c2nnc(SCc3nnc(-c4ccc([N+](=O)[O-])cc4)o3)[nH]2)c(=O)c2cc(F)c(N3CCN(C)CC3)cc21 | 4.45 to 5.42 | 4.45 to 5.42 | 4.45 to 5.42 | 4.45 to 5.42 | 4.45 to 5.42
7 | CCn1cc(-c2nc(SCc3nnc(-c4ccc(F)cc4)o3)n(CN(C)C)n2)c(=O)c2cc(F)c(N3CCN(C)CC3)cc21 | 5.28 to 5.82 | 5.28 to 5.82 | 5.28 to 5.82 | 5.28 to 5.82 | 5.28 to 5.82
8 | Cc1ccc(-c2csc3nc(-c4cn(C5CC5)c5cc(N6CCN(C)CC6)c(F)cc5c4=O)nn23)cc1 | 4.25 to 5.44 | 4.25 to 5.44 | 4.25 to 5.44 | 4.25 to 5.44 | 4.25 to 5.44
9 | CCn1cc(-c2nnc(SCc3nnc(-c4cc(OC)c(OC)c(OC)c4)o3)[nH]2)c(=O)c2cc(F)c(N3CCN(C)CC3)cc21 | 4.45 to 5.42 | 4.45 to 5.42 | 4.45 to 5.42 | 4.45 to 5.42 | 4.45 to 5.42
10 | COc1ccccc1-c1csc2nc(-c3cn4c5c(c(N6CCN(C)CC6)c(F)cc5c3=O)OCC4C)nn12 (configuration not stated) | 4.25 to 5.44 | 4.25 to 5.44 | 4.25 to 5.44 | 4.25 to 5.44 | 4.25 to 5.44
11 | CCn1cc(-c2nc3scc(-c4ccc(OC)cc4)n3n2)c(=O)c2cc(F)c(N3CCN(C)CC3)cc21 | 4.25 to 5.44 | 4.25 to 5.44 | 4.25 to 5.44 | 4.25 to 5.44 | 4.25 to 5.44
12 | COc1cc(-c2csc3nc(-c4cn5c6c(c(N7CCN(C)CC7)c(F)cc6c4=O)OCC5C)nn23)ccc1O (configuration not stated) | 4.25 to 5.44 | 4.25 to 5.44 | 4.25 to 5.44 | 4.25 to 5.44 | 4.25 to 5.44
13 | CN1CCN(c2cc3c(cc2F)c(=O)c(-c2nnc(SCc4nnc(-c5ccc(Cl)cc5)o4)o2)cn3C2CC2)CC1 | – | 4.49 to 5.62 | 4.49 to 5.62 | – | 4.49 to 5.62
14 | COc1ccc(-c2csc3nc(-c4cn(C5CC5)c5cc(N6CCN(C)CC6)c(F)cc5c4=O)nn23)cc1 | 4.25 to 5.44 | 4.25 to 5.44 | 4.25 to 5.44 | 4.25 to 5.44 | 4.25 to 5.44
15 | CN1CCN(c2cc3c(cc2F)c(=O)c(-c2nc4scc(-c5ccc(Br)cc5)n4n2)cn3C2CC2)CC1 | 4.25 to 5.44 | 4.25 to 5.44 | 4.25 to 5.44 | 4.25 to 5.44 | 4.25 to 5.44
16 | CCn1cc(-c2nnc(SCc3nnc(-c4ccc(C)cc4)o3)[nH]2)c(=O)c2cc(F)c(N3CCN(C)CC3)cc21 | 4.45 to 5.42 | 4.45 to 5.42 | 4.45 to 5.42 | 4.45 to 5.42 | 4.45 to 5.42
17 | CCn1cc(-c2nc3scc(-c4ccc5c(c4)OCO5)n3n2)c(=O)c2cc(F)c(N3CCN(C)CC3)cc21 | 4.25 to 5.44 | 4.25 to 5.44 | 4.25 to 5.44 | 4.25 to 5.44 | 4.25 to 5.44
18 | CC1COc2c(N3CCN(C)CC3)c(F)cc3c(=O)c(-c4nc5scc(-c6ccc7c(c6)OCO7)n5n4)cn1c23 (configuration not stated) | 4.25 to 5.44 | 4.25 to 5.44 | 4.25 to 5.44 | 4.25 to 5.44 | 4.25 to 5.44
19 | COc1ccc(-c2csc3nc(-c4cn5c6c(c(N7CCN(C)CC7)c(F)cc6c4=O)OCC5C)nn23)cc1 (configuration not stated) | 4.45 to 4.57 | 4.45 to 4.57 | 4.45 to 4.57 | 4.45 to 4.57 | 4.45 to 4.57
20 | CCn1cc(-c2nnc(SCc3nnc(-c4ccc(OC)c(OC)c4)o3)[nH]2)c(=O)c2cc(F)c(N3CCN(C)CC3)cc21 | 4.45 to 5.42 | 4.45 to 5.42 | 4.45 to 5.42 | 4.45 to 5.42 | 4.45 to 5.42
21 | CN1CCN(c2cc3c(cc2F)c(=O)c(-c2nc4scc(-c5ccc(Cl)cc5)n4n2)cn3C2CC2)CC1 | 4.25 to 5.44 | 4.25 to 5.44 | 4.25 to 5.44 | 4.25 to 5.44 | 4.25 to 5.44
22 | CCn1cc(-c2nc3scc(-c4ccc([N+](=O)[O-])cc4)n3n2)c(=O)c2cc(F)c(N3CCN(C)CC3)cc21 | 4.25 to 5.44 | 4.25 to 5.44 | 4.25 to 5.44 | 4.25 to 5.44 | 4.25 to 5.44
23 | CCn1cc(-c2nnc(SCc3nnc(-c4ccccc4OC)o3)[nH]2)c(=O)c2cc(F)c(N3CCN(C)CC3)cc21 | 4.45 to 5.42 | 4.45 to 5.42 | 4.45 to 5.42 | 4.45 to 5.42 | 4.45 to 5.42

Row | SMILES | pIC50 (Hep 3B2) | pIC50 (HL-60) | pIC50 (L1210) | pIC50 (CAPAN-1) | pIC50 (SMMC-7721)
24 | COc1cc(-c2nnc(CSc3nnc(-c4cn5c6c(c(N7CCN(C)CC7)c(F)cc6c4=O)OCC5C)o3)o2)cc(OC)c1OC (configuration not stated) | – | 4.61 to 5.24 | 4.61 to 5.24 | – | 4.61 to 5.24
25 | CCn1cc(-c2nnc(SCc3nnc(-c4cccc(C)c4)o3)[nH]2)c(=O)c2cc(F)c(N3CCN(C)CC3)cc21 | 4.45 to 5.42 | 4.45 to 5.42 | 4.45 to 5.42 | 4.45 to 5.42 | 4.45 to 5.42
26 | CCn1cc(-c2nc(SCc3nnc(-c4ccc(Cl)cc4)o3)n(CN(C)C)n2)c(=O)c2cc(F)c(N3CCN(C)CC3)cc21 | 4.61 to 5.82 | 4.61 to 5.82 | 4.61 to 5.82 | 4.61 to 5.82 | 4.61 to 5.82
27 | CCn1cc(-c2nc3scc(-c4ccccc4)n3n2)c(=O)c2cc(F)c(N3CCN(C)CC3)cc21 | 4.25 to 5.44 | 4.25 to 5.44 | 4.25 to 5.44 | 4.25 to 5.44 | 4.25 to 5.44
28 | COc1ccc(-c2nnc(CSc3nnc(-c4cn5c6c(c(N7CCN(C)CC7)c(F)cc6c4=O)OCC5C)o3)o2)cc1 (configuration not stated) | – | 4.61 to 5.24 | 4.61 to 5.24 | – | 4.61 to 5.24
29 | CC1COc2c(N3CCN(C)CC3)c(F)cc3c(=O)c(-c4nc5scc(-c6ccc(Cl)cc6)n5n4)cn1c23 (configuration not stated) | 4.25 to 5.44 | 4.25 to 5.44 | 4.25 to 5.44 | 4.25 to 5.44 | 4.25 to 5.44
30 | CCn1cc(-c2nc(SCc3nnc(-c4ccc(C)cc4)o3)n(CN(C)C)n2)c(=O)c2cc(F)c(N3CCN(C)CC3)cc21 | 4.61 to 5.82 | 4.61 to 5.82 | 4.61 to 5.82 | 4.61 to 5.82 | 4.61 to 5.82
31 | CCn1cc(-c2nc(SCc3nnc(-c4cccc(C)c4)o3)n(CN(C)C)n2)c(=O)c2cc(F)c(N3CCN(C)CC3)cc21 | 4.61 to 5.82 | 4.61 to 5.82 | 4.61 to 5.82 | 4.61 to 5.82 | 4.61 to 5.82
32 | CCn1cc(-c2nc(SCc3nnc(-c4ccccc4OC)o3)n(CN(C)C)n2)c(=O)c2cc(F)c(N3CCN(C)CC3)cc21 | 4.61 to 5.82 | 4.61 to 5.82 | 4.61 to 5.82 | 4.61 to 5.82 | 4.61 to 5.82
33 | CCn1cc(-c2nc3scc(-c4ccc(C)cc4)n3n2)c(=O)c2cc(F)c(N3CCN(C)CC3)cc21 | 4.25 to 5.44 | 4.25 to 5.44 | 4.25 to 5.44 | 4.25 to 5.44 | 4.25 to 5.44
34 | CC1COc2c(N3CCN(C)CC3)c(F)cc3c(=O)c(-c4nnc(SCc5nnc(-c6ccccc6)o5)o4)cn1c23 (configuration not stated) | – | 4.61 to 5.24 | 4.61 to 5.24 | – | 4.61 to 5.24
35 | CCn1cc(-c2nc3scc(-c4ccccc4OC)n3n2)c(=O)c2cc(F)c(N3CCN(C)CC3)cc21 | 4.25 to 5.44 | 4.25 to 5.44 | 4.25 to 5.44 | 4.25 to 5.44 | 4.25 to 5.44
36 | CCn1cc(-c2nc(SCc3nnc(-c4ccc(OC)c(OC)c4)o3)n(CN(C)C)n2)c(=O)c2cc(F)c(N3CCN(C)CC3)cc21 | 4.61 to 5.82 | 4.61 to 5.82 | 4.61 to 5.82 | 4.61 to 5.82 | 4.61 to 5.82
37 | CN1CCN(c2cc3c(cc2F)c(=O)c(-c2nnc(SCc4nnc(-c5ccc([N+](=O)[O-])cc5)o4)o2)cn3C2CC2)CC1 | – | 4.49 to 5.62 | 4.49 to 5.62 | – | 4.49 to 5.62
38 | CC1COc2c(N3CCN(C)CC3)c(F)cc3c(=O)c(-c4nnc(SCc5nnc(-c6ccc([N+](=O)[O-])cc6)o5)o4)cn1c23 (configuration not stated) | – | 4.61 to 5.24 | 4.61 to 5.24 | – | 4.61 to 5.24
39 | CN1CCN(c2cc3c(cc2F)c(=O)c(-c2nc4scc(-c5ccc([N+](=O)[O-])cc5)n4n2)cn3C2CC2)CC1 | 5.12 to 5.44 | 5.12 to 5.44 | – | 5.12 to 5.44 | –
40 | COc1ccccc1-c1nnc(CSc2nnc(-c3cn4c5c(c(N6CCN(C)CC6)c(F)cc5c3=O)OCC4C)o2)o1 (configuration not stated) | – | 4.61 to 5.24 | 4.61 to 5.24 | – | 4.61 to 5.24
41 | CN1CCN(c2cc3c(cc2F)c(=O)c(-c2nnc(SCc4nnc(-c5ccccc5)o4)o2)cn3C2CC2)CC1 | – | 4.49 to 5.62 | 4.49 to 5.62 | – | 4.49 to 5.62
42 | Cc1ccc(-c2nnc(CSc3nnc(-c4cn(C5CC5)c5cc(N6CCN(C)CC6)c(F)cc5c4=O)o3)o2)cc1 | – | 4.49 to 5.62 | 4.49 to 5.62 | – | 4.49 to 5.62
43 | Cc1ccc(-c2nnc(CSc3nnc(-c4cn5c6c(c(N7CCN(C)CC7)c(F)cc6c4=O)OCC5C)o3)o2)cc1 (configuration not stated) | – | 4.61 to 5.24 | 4.61 to 5.24 | – | 4.61 to 5.24
44 | COc1ccccc1-c1nnc(CSc2nnc(-c3cn(C4CC4)c4cc(N5CCN(C)CC5)c(F)cc4c3=O)o2)o1 | – | 4.49 to 5.62 | 4.49 to 5.62 | – | 4.49 to 5.62
45 | CC1COc2c(N3CCN(C)CC3)c(F)cc3c(=O)c(-c4nnc(SCc5nnc(-c6ccc(Cl)cc6)o5)o4)cn1c23 (configuration not stated) | – | 4.61 to 5.24 | 4.61 to 5.24 | – | 4.61 to 5.24

Source: ChEMBL document CHEMBL4613209, “Quinolone hybrids and their anti-cancer activities: An overview” (Eur J Med Chem, 2019)
